The values that follow come from patent US20160015730A1, “Treatment of Pulmonary Hypertension with Carbonic Anhydrase Inhibitors” (priority 2007, published 2016).

Experiment [1] has as its system patients exhibiting similar symptoms with respect to pulmonary hypertension. The experiment can be described thus: Examples 12-17: procedures of Examples 2 through 5 repeated with zonisamide or acetazolamide substituted for topiramate. Format: in vivo, human.
Experiment [2] has as its system patient exhibiting similar symptoms with respect to pulmonary hypertension. The experiment is described as follows: Examples 6-11: procedure of Example 1 repeated with zonisamide or acetazolamide substituted for topiramate. Format: in vivo, human.
A further experiment deals with Type V phosphodiesterase (Homo sapiens, UniProt O76074). To be noted: comparison with avanafil (and sildenafil); cited from earlier work.
Experiment [3] concerns patient with probable mild pulmonary hypertension. The experiment is described as follows: Example 3 case report: patient with probable mild pulmonary hypertension treated with phentermine and topiramate. Format: in vivo, human. As to the method: The third patient was a person with obesity, hypertension, elevated cholesterol, heart murmur and dyspnea on exertion. Their medications were atorvastatin 10 mg daily, captopril 12.5 mg daily, trazodone 50 mg daily, spironolactone 50 mg daily, and bupropion 150 mg daily. They were 64″ tall, weight 319 lbs, BMI 55, initial BP 148/76.
They were treated with phentermine 15 mg daily and topiramate 200 mg daily along with a low fat, low carbohydrate diet and exercise. They were instructed to stop both the spironolactone and captopril since this weight loss treatment results in marked lowering of blood pressure in most patients. […] Blood pressure one week later was 140/86 and weight 317 lbs.

Experiment [4] concerns patient with pulmonary hypertension. The experiment is described as follows: Example 5 case report: patient with COPD and pulmonary hypertension treated with phentermine and topiramate. The class given is in vivo, human. To be noted: topiramate 100 mg daily with phentermine 15 mg daily. As to the method:
The fifth patient was a person with obesity, diabetes, hypertension, hypothyroidism, elevated cholesterol, COPD, and pulmonary hypertension. […] They had stopped smoking 1PPD about 10 years previously. Their baseline medications were verapamil 240 mg daily, losartan-HCTZ 50-12.5 daily, levothyroxine 0.125 mg daily, Pulmicort […] 2 puffs twice daily, Foradil powder […] twice daily, metformin 500 mg twice daily, atorvastatin 10 mg daily, fluticasone nasal spray 50 mcg 2 puffs daily and vitamins. They were short of breath with minimal exertion. They were 67″ tall, weight 228 lbs, BMI 36, initial BP 138/70.
They were treated with phentermine 15 mg daily and topiramate 100 mg daily. Three years into treatment, their fasting glucose is 106 off metformin compared with 114 on metformin at baseline, their blood pressure is 115/60 on valsartan 80 mg daily and diltiazem CD 120 mg daily (changed from verapamil because of constipation). Their weight has been stable for six months in the low 180's.

Experiment [5] deals with patients with pulmonary hypertension. The experiment can be described thus: Summary of the five patients of Examples 1-5. Format: in vivo, human. The text has this: However, the improvement in pulmonary pressures appeared to be independent of weight loss in these patients.
Experiment [6] concerns patient with elevated pulmonary artery pressure (pulmonary hypertension). The experiment can be described thus: Example 1 case report: patient with mildly elevated pulmonary artery pressure treated with bupropion and topiramate. Format: in vivo, human. The protocol: They were 66″ tall, weight 282 lbs, BMI 46, initial BP 118/80. They had 2+ edema of both ankles, clear lungs, and a systolic murmur along the left sternal border, grade II/VI.
They were started on atorvastatin 10 mg daily as well as bupropion 150 mg daily and topiramate 200 mg daily along with a low fat, low carbohydrate diet and exercise. […] They lost weight continuously on the program and 4 months later had lost 20 lbs. […] After six months, the patient temporarily discontinued the medications. Within a few days, even though their weight was the same, their chest pressure and shortness of breath on exertion returned. On resumption of the treatment, the symptoms resolved within a few days.

Experiment [7] concerns patient with pulmonary hypertension. The experiment is described as follows: Example 2 case report: patient with pulmonary hypertension treated with phentermine and topiramate. Format: in vivo, human. Conditions: topiramate 200 mg daily with phentermine 15 mg daily. As to the method: The second patient was a person with obesity, hypothyroidism, hypertension, valvular heart disease, elevated cholesterol and depression. Their medications were levothyroxine 50 mcg daily, metoprolol 50 mg daily, venlafaxine 37.5 mg daily, progesterone 100 mg daily, esterified estrogens 1.25 mg daily, and methyltestosterone 2.5 mg daily. They were 63″ tall, weight 178 lbs, BMI 32, initial BP 120/78. They had trace edema of both ankles and a systolic murmur of I/VI along the left sternal border. […] A comment on the report stated that this was a slight increase in pulmonary pressure compared with an echocardiogram taken seven months earlier.
They were treated with phentermine 15 mg daily and topiramate 200 mg daily along with a low fat, low carbohydrate diet and exercise. Metoprolol was discontinued after four months due to low blood pressure. Eight months after treatment started, their weight was 165 lbs, BP was 122/76, and they had no edema. […] No MR was seen.

The test system of experiment [8] is patient with known pulmonary hypertension. The experiment is described as follows: Example 4 case report: patient with known pulmonary hypertension and sleep apnea treated with bupropion, topiramate and phentermine. To be noted: topiramate 100 mg daily with bupropion 300 mg. The class given is in vivo, human. The protocol:
The fourth patient was a person with obesity, sleep apnea on CPAP, known pulmonary hypertension with PA pressure estimated at 76 mm Hg by echocardiogram, valvular heart disease (mild-moderate tricuspid and mitral regurgitation), depression and hypertension. They smoked just under half pack of cigarettes per day and was a CO2 retainer by ABG's with a PCO2 of 54 mm Hg on room air. They were short of breath with minimal exertion. Their baseline medications were furosemide 80 mg daily, potassium chloride 20 mEq daily, lisinopril 10 mg daily, carvedilol 25 mg BID, escitalopram 10 mg daily, alprazolam 0.5 mg TID, and nightly oxygen. They were 68″ tall, weight 284 lbs, BMI 43½, initial BP 122/76. They had 1+ edema of both lower legs and was short of breath on exertion.
They were treated with aspirin 81 mg coated daily, bupropion 300 mg daily, topiramate 100 mg daily, phentermine 5 mg daily, along with a low fat, low carbohydrate diet and light exercise. By the first 4 weeks of follow-up, they had lost 17 lbs and was breathing much better. […] They were still smoking cigarettes occasionally. They had lost 38 lbs. Their blood pressure was 110/70 on only lisinopril 10 mg daily. Furosemide and carvedilol had been gradually discontinued due to improved edema, blood pressure, and breathing. An echocardiogram performed at three months into the program was mostly unchanged from their prior echocardiogram except that the pulmonary artery pressure was reported as normal. This change was consistent with their clinical picture.

On to `CC(=O)Nc1nnc(S(N)(=O)=O)s1` [acetazolamide], for which, in experiment [1] (100 mg, 250 mg, and 500 mg acetazolamide substituted for topiramate), the “results relative to Examples 2 through 5” value is on record as “Substantially the same results”. In addition, the “results relative to Example 1” value is reported as “Substantially the same results” in experiment [2] (Example 9, 100 mg acetazolamide substituted for the topiramate); “Substantially the same results” in experiment [2] (Example 10, 250 mg acetazolamide substituted for the topiramate); “Substantially the same results” in [2] (Example 11, 500 mg acetazolamide substituted for the topiramate).

In the case of `CCCc1nn(C)c2c(=O)[nH]c(-c3cc(S(=O)(=O)N4CCN(C)CC4)ccc3OCC)nc12` [sildenafil], at Type V phosphodiesterase, the “potency as phosphodiesterase inhibitor relative to avanafil” value is “approximately twice as potent as avanafil”.

As to `CC1(C)O[C@@H]2[C@@H](CO[C@@]3(COS(N)(=O)=O)OC(C)(C)O[C@@H]23)O1` [topiramate], in [3] (person, topiramate 200 mg daily with phentermine 15 mg daily (bupropion 150 mg daily at baseline), three weeks, before significant weight loss, baseline probable mild pulmonary hypertension), the “echocardiogram findings of pulmonary hypertension” value is on record as “no findings of pulmonary hypertension”. Further, the weight in experiment [3] (topiramate 200 mg daily with phentermine 15 mg daily, four weeks, baseline 319 lbs) is on record as 317 lbs; in experiment [4] (three years, stable for six months, baseline 228 lbs), “low 180's”; in experiment [7] (person, diet and exercise, eight months, baseline 178 lbs) it was 165 lbs. The blood pressure in experiment [3] (topiramate 200 mg daily with phentermine 15 mg daily, four weeks, spironolactone and captopril stopped, baseline 148/76) is on record as 140/86; in experiment [4] (three years, on valsartan 80 mg and diltiazem CD 120 mg daily, baseline 138/70), 115/60; in [8] (phentermine 5 mg daily, four months, on only lisinopril 10 mg daily, baseline 122/76), 110/70. Further, the fasting glucose in [4] (person, three years, off metformin, baseline 114 on metformin) was determined as 106. Also, the “pulmonary pressures (echocardiogram)” value is given as “normal” in [4] (30 months into treatment, baseline 45-50 mm Hg) and “normal” in experiment [6] (topiramate 200 mg daily with bupropion 150 mg daily, 2 weeks after start of treatment, baseline 36 mm Hg). Also, the symptoms result in experiment [4] (exercising more without shortness of breath) is recorded as “symptomatically much better”. Also, the symptomatic improvement entry in experiment [5] (all patients) is “symptomatic improvement in all patients”. For the same compound, the “improvement in pulmonary hypertension” value in experiment [5] (topiramate with phentermine and/or bupropion, diet and weight loss program) was “surprising improvement”. Moreover, the “chest pressure and shortness of breath on exertion after discontinuing the medications” value in experiment [6] (medications temporarily discontinued after six months, within a few days, weight the same) is given as “returned”. In addition, the exercise tolerance entry in [6] (person, topiramate 200 mg daily with bupropion 150 mg daily, atorvastatin 10 mg daily, diet and exercise, two weeks after start) is given as “markedly improved”. In addition, the “symptoms on resumption of the treatment” value in experiment [6] (resumption of topiramate 200 mg/bupropion 150 mg treatment, within a few days) was “resolved”. In [6] (topiramate 200 mg daily with bupropion 150 mg daily, atorvastatin 10 mg daily, two weeks after start), the “chest pressure and shortness of breath on exertion” value is reported as “gone”. Further, the weight lost in experiment [6] (topiramate 200 mg daily with bupropion 150 mg daily, atorvastatin, diet and exercise, 4 months, baseline 282 lbs) was determined as 20 lbs; in [8] (person, phentermine 5 mg, aspirin 81 mg daily, diet, light exercise, first 4 weeks, baseline 284 lbs), 17 lbs; in [8] (phentermine 5 mg, aspirin 81 mg daily, four months), 38 lbs. Besides, in experiment [7] (eight months, baseline trace edema of both ankles), the edema entry was “no edema”. Further, the BP in [7] (eight months, metoprolol discontinued, baseline 120/78) is 122/76. Moreover, the “pulmonary artery pressure (echocardiogram)” value is 33 mm Hg in experiment [7] (nine months on treatment, baseline 39 mm Hg) and “normal” in [8] (phentermine 5 mg daily, three months, baseline estimated 76 mm Hg). In [7] (nine months on treatment, baseline mild MR), the “mitral regurgitation (MR, echocardiogram)” value was “No MR”. Further, the “tricuspid regurgitation (echocardiogram)” value in experiment [7] (nine months on treatment, baseline moderate TR) is “mild”. Moreover, the breathing entry in experiment [8] (phentermine 5 mg, aspirin 81 mg daily, first 4 weeks) is “much better”. The clinical status result in [8] (phentermine 5 mg, aspirin 81 mg daily, four months, able to exercise normally without shortness of breath) is on record as “clinically markedly improved”.

`NS(=O)(=O)Cc1noc2ccccc12` [zonisamide]: in [1] (25 mg, 50 mg, and 100 mg zonisamide substituted for topiramate), the “results relative to Examples 2 through 5” value was “Substantially the same results”. Besides, the “results relative to Example 1” value in experiment [2] (Example 6, 25 mg zonisamide substituted for the topiramate) is listed as “Substantially the same results”; in experiment [2] (Example 7, 50 mg zonisamide substituted for the topiramate) it was “Substantially the same results”; in [2] (Example 8, 100 mg zonisamide substituted for the topiramate), “Substantially the same results”.
